Tests used:
[1] = tested on: CA1 hippocampal pyramidal cells; assay: Tonic GABAergic current, perforated-patch voltage-clamp, hippocampal slice; format: cell-based, mouse
Experimental: Tonic current was recorded as the difference current produced by the selective GABAA receptor antagonist gabazine (120 μM) before and after 30 nM THP^4,29, while gramicidin perforated-patch recordings^33 were accomplished using 140 mM KCl plus 25 μg ml^−1 gramicidin in the pipet solution, recorded when the access resistance dropped to <60 MΩ after tight seal formation. Estimates of the direction of Cl^− current were obtained by recording using tight-seal cell-attached techniques^31 (>1 GΩ seal) in current clamp mode. A downward deflection signified outward (i.e., hyperpolarizing) Cl^− current.
One complication of whole-cell patch clamp recording is that normal ionic gradients are disrupted. Therefore, in order to verify that THP reduced tonic GABAergic currents in intact cells under conditions of unperturbed internal Cl^−, we directly recorded pharmacologically isolated tonic GABAergic current from the soma using perforated-patch voltage-clamp techniques in the hippocampal slice.

[2] = tested on: female C57BL6 mice; assay: Elevated plus maze (with or without restraint stress); format: in vivo, mouse
Description: Animal subjects. Prepubertal and pubertal female C57BL6 mice (3½-6 weeks old, +/+ and δ^−/−1) were housed in a reverse light:dark cycle (12:12). Both sets of mice were originally supplied by G. Homanics (Univ. of Pittsburgh), and were bred on site, with +/+ mice supplemented from Jackson Laboratories (Bar Harbor, Me.). Initially, age-matched+/+littermates of the δ^−/−were used as controls, but because they were indistinguishable from C57BL6, data from both groups were pooled. Genotyping of the tails verified that mice were homozygous δ^−/−. Some animals (+/+ or δ^−/−) were injected with finasteride (1,(5α)-androstene-4-aza-3-one-N-tert-butyl-17β-carboxaminde, Steraloids, 50 mg kg^, −1 intraperitoneally, 3 days) to block THP synthesis^2 or oil vehicle on a daily basis 1-1.5 h before dark onset, when THP levels increase, and tested 30 min. later. The onset of puberty was determined by vaginal opening, and pubertal mice tested on the day of first metestrus, identified by vaginal morphology and verification of first estrus the previous day. Mice with vaginal smears representative of diestrus were excluded from the study. Individual stages of puberty were not distinguished, and pre-pubertal mice were used before any visible signs of pubertal development, assessed by development of the peri-vaginal area. In some cases, pubertal mice were injected with replacement THP (3α-OH-5β-pregnan-20-one, 10 mg kg^−1, intraperitoneally in oil) for three days before testing. Procedures were in accordance with the SUNY Downstate Institutional Animal Care and Use Committee.
Restraint stress. In order to test the effect stress-induced release of THP^6,46,47 on anxiety, mice were restrained in a clear Plexiglas tube-type holder (Harvard Apparatus) for 45 min. and tested 20 min. later on the elevated plus maze (see Supplementary Methods). Open arm time was evaluated for 5 min. on the elevated plus maze. A decrease in open arm time reflects an increase in anxiety^18. In all cases, the results from each mouse tested after restraint was expressed relative to the averaged results from the sham controls, which were identical to the stressed animals (age, genotype, sex, drug-injected), except that they were not subjected to restraint stress.
Elevated plus maze. Testing rodent behavior on the elevated plus maze is an established animal model of anxiety^31. The plus maze consists of four 8×35 cm arms at 90° angles, elevated 57 cm above the floor. Two arms are enclosed by 33 cm walls, and two arms have no walls (“open arms”). […] Each animal was initially acclimated to the room for 30 min-1 h before being placed in the center of the maze, and exploratory activity recorded for 5 min. […]

[3] = tested on: α5β2/3γ2 receptors; assay: Whole cell patch clamp of GABA-gated current, recombinant receptors in HEK-293 cells; format: cell-based, rat; settings: 30 nM THP
Description: Recombinant receptors: Transfection—Plasmids obtained from S. Vicini (rat α1, α5, β2, β3 and γ2), P. Whiting (human α4 and δ) and N. L. Harrison (mouse α4) were propagated in E coli DH5α and prepared using Qiagen Maxi- or Midi-prep kits. (Rat, mouse and human α1, β2, β3 and γ2 subunits are identical or nearly identical.) All receptors were transfected at a 1:1:1 ratio, except α1β2γ2 (1:1:5)^12, α4βδ (5:1:5)^13 and α4β2γ2 (5:1:1). HEK-293 cells were maintained in medium (DMEM:Ham's F-12 1:1) supplemented with 10% fetal calf serum at 37° C. in a humid 5% CO2 atmosphere.
The pipet solution contained (in mM): N-methyl-D-glucamine chloride 120, Cs4BAPTA 5 (Calbiochem), Mg-ATP 5, and an ATP regeneration system (20 mM Tris phosphocreatine and creatine kinase). Internal [Cl^−] or the holding potential were varied, using gluconate as the anion, to alter the direction of Cl^− flow, corrected for the junction potential.
HEK-293 cells were maintained in medium (DMEM:Ham's F-12 1:1) supplemented with 10% fetal calf serum at 37° C. in a humid 5% CO2 atmosphere.

Compound: CC(=O)[C@H]1CC[C@H]2[C@@H]3CC[C@H]4C[C@H](O)CC[C@]4(C)[C@H]3CC[C@]12C [THP, 3α-OH-5α[β]-pregnan-20-one]
- depression of outward GABAergic current ([1]; 30 nM THP, pubertal, 1 μM TTX, 1 μM GABA): 40±8%
- effect on post-synaptic GABAergic tonic current ([1]; before puberty): had no effect
- effect on reversal potential ([1]; pubertal): did not alter the reversal potential
- effect on GABA-gated conductance (gabazine-sensitive slope) ([1]; pubertal, 10 mV steps −60 to −40 mV): decreased the GABA-gated conductance
- decrease of open arm time ([2]; 10 mg kg−1 intraperitoneally, acute, after onset of puberty): 35±8%
- locomotor activity ([2]; 10 mg kg−1 intraperitoneally, after onset of puberty): without changing locomotor activity
- anxiety response to stress after steroid replacement ([2]; replacement THP 10 mg kg−1 i.p. for three days at puberty): did not exhibit an anxiety response to stress
- effect on outward current [3]: either increased or had no effect

— patent US20090269795A1, “Mutant alpha4betadelta GABAA receptor and methods of treating anxiety or irritability” (priority 2007, published 2009)
